We go through two molecules from US20160045606A1, “PARTIALLY-DENATURED PROTEIN HYDROGELS” (Northwestern University, priority 2014, published 2016).

“Also recorded” adds a separate entry of the source.

Series [1] can be described thus: In vivo subcutaneous rat model (biocompatibility). The note with it: 0.5 mL subcutaneous injection. On the set-up: species or system Sprague-Dawley rats. As to the method: Eight female Sprague-Dawley rats (Harlan Laboratories, Inc.) weighing 150-175 g were used for in vivo biocompatibility testing of the BSA gels. Four rats were randomly assigned into two groups for explant time points at 4 days and 4 weeks for evaluation of the acute and chronic inflammatory response. Animals were anesthetized using the inhalant machine Impact 6 (Vetequip Inc., Pleasanton, Calif.). Isofluorane was administered at a concentration of 2% with an oxygen flow rate of 2 L/min. Following anesthesia; the backs of the animals were shaved and then disinfected with […] followed by alcohol and a second […] wipe. Two incisions of approximately 1.5 cm in length were made at the implantation sites and subcutaneous pockets were created by blunt dissection in each location. 20 wt % Albumin hydrogels 184 (both PBSA and TBSA) were fabricated as described in the methods section 2.1 and were cut into disks (h=0.5 cm, r=0.6 cm) using a sterile biopsy punch. In one location, an acid leached 20 wt % PBSA gel disk was implanted into the subcutaneous pocket far from the incision site. At the other incision site, a 20 wt % TBSA gel disk was implanted. A control saline injection and pH 7.4 (20 wt %) BSA solution was injected into the back of the rat in the two remaining implantation sites. […]

The target in series [2] is F-form albumin (Bos taurus, UniProt P02769). As to the kind of experiment: atRA binding by tryptophan fluorescence quenching at 340 nm, BSA at pH 3.5. On the set-up: species or system bovine. To be noted: pH 3.5, excitation 295 nm. As to the method: (§1) All trans retinoic acid (atRA, 82625, Sigma, St. Louis, 206 MO) was added to solutions of BSA with molar ratio concentrations including 0:1, 0.08:1, 0.1:1, 0.13:1, 0.2:1, 0.4:1, 0.8:1, 1.2:1, 1.6:1, and 2:1 (atRA:BSA). A baseline fluorescence intensity of BSA at pH 7.4 and 3.5 measured at 340 nm with excitation at 295 nm was recorded (n=4 for each molar ratio concentration) as reported in the literature (Maiti et al. Int J Biol Macromol. 2006; 38(3-5):197-202; herein incorporated by reference in its entirety) using the plate reader Tecan Safire II (Tecan, Maennedorf, Switzerland). Then, atRA binding to BSA at pH 7.4 and 3.5 was assessed immediately after the addition of atRA at the different molar ratios. For measuring atRA release from hydrogel disks, a higher molar ratio concentration of 8:1 (atRA:BSA) was used when incorporating atRA into BSA precursor solutions before gelation. Precursor solutions were processed as normal to fabricate atRA-loaded PBSA and TBSA hydrogel disks with a final volume of 0.5 mL. Disks were submerged in 10 mL PBS at 37° C. for atRA release studies. Eluates were collected and replaced at 1, 3, 6, 12, 24, 48, 72, 144, and 240 hour sampling times and fluorescence intensity of atRA at 340 nm and BSA at 280 nm was collected with a NanoDrop™ 2000 C Spectrophotometer (ThermoScientific™, Waltham, Mass.).
F-form albumin, sequence (P02769 25-607): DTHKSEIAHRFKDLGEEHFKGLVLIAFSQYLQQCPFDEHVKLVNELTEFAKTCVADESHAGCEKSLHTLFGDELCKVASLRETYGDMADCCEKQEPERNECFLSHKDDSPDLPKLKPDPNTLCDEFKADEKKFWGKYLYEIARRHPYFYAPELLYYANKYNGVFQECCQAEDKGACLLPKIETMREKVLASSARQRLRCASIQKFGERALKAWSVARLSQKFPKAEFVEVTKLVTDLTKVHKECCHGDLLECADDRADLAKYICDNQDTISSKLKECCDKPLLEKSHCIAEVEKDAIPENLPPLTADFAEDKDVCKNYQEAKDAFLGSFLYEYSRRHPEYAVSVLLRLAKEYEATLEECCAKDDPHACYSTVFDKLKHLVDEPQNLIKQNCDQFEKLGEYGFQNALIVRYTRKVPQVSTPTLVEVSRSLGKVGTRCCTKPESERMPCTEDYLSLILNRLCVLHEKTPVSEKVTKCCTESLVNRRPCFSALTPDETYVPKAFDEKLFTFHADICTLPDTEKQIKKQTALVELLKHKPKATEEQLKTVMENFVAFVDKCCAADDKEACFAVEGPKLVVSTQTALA

The target of series [3] is N-form albumin (TRP 213 atRA binding site) (Homo sapiens, UniProt P02768). The note with it: literature estimate (Maiti et al. 2006), TRP 213 site on N-form albumin; cited from earlier work.
N-form albumin (TRP 213 atRA binding site), sequence (P02768 25-609): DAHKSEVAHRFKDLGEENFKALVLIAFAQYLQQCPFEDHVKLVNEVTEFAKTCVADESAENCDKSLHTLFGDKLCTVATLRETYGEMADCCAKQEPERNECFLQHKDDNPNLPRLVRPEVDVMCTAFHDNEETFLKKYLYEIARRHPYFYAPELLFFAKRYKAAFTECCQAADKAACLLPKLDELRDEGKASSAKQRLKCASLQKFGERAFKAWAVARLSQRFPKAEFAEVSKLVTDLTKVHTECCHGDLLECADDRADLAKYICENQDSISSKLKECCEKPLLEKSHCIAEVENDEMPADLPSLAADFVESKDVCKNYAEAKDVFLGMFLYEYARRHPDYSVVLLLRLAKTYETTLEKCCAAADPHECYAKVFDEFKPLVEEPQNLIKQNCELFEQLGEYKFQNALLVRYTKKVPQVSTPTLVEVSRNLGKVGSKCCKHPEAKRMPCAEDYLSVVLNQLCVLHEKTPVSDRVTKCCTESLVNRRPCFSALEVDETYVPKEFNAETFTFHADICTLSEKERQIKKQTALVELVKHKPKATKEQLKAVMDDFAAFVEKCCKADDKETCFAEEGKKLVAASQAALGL
Series [4] has as its system Human aortic smooth muscle cells (HASMC). Kind of series: Scratch test migration assay. It is filed as cell-based. To be noted: cells exposed directly to 25 ng/mL atRA in media, 24 hr scratch wound, serum starved, vs negative control. As to the method:
Human aortic smooth muscle cells (HASMC) (Lonza, Basel, Switzerland) (passage 5) were cultured in SmGM-2 media. All cells were cultured at 37° C. in a humidified incubator containing 5% CO2. HASMCs (seeding density 1×10^4 cells/cm2) were seeded onto TCP surfaces and grown until 90% confluent. Cell culture media was changed every 2 days until confluence after which serum-free SmGM-2 media was used to create a nutrient starved environment for 24 hrs. A vertical scratch was made with a sterile 200 uL pipette tip in the confluent HASMC layer, rinsed with warm PBS, and replaced with 1 mL SmGM-2 media. The underside of the dish was marked near the wound area to aid in identification. Wells were randomly placed into 4 groups which received either a 100 uL dose of eluted material from atRA loaded PBSA or TBSA release study at day 10, a 100 uL dose of 24 ng atRA dissolved in PBS, or a control 100 uL of PBS. A light microscope (Nikon Eclipse TE2000-U) was used to capture images using Image Pro 5.0 software (MediaCybernetics, Bethesda, Md.) of the wound area immediately at day 0 and at various times until the control wound closed at 24 hrs. Wound areas were determined using an automated wound area measurement macro with the ImageJ 1.43r software (NIH, Bethesda, Md.). The measurement of migration was determined by subtracting the cell-free area at day 0 from the cell-free area at 24 hrs. […]

Series [5] concerns the target N-form albumin (Bos taurus, UniProt P02769). As to the kind of experiment: atRA binding by tryptophan fluorescence quenching at 340 nm, BSA at pH 7.4. On the set-up: species or system bovine. How it is done: as §1

N-form albumin, sequence (P02769 25-607): as the sequence (P02769 25-607) above

Take “BSA solution: control 20 wt % bovine serum albumin solution at pH 7.4, injected subcutaneously”: in series [1] (4 weeks), the inflammatory response result is listed as “decreased significantly”. Besides, in series [1] (4 days, compared to saline control), the “inflammatory response (number of cells in the subcutaneous pocket)” value was “increased general inflammatory response”.

In the case of `CC1=C(/C=C/C(C)=C/C=C/C(C)=C/C(=O)O)C(C)(C)CCC1` [atRA, All trans retinoic acid], the “tryptophan fluorescence signal at 340 nm upon addition of atRA” value in series [2] is on record as “rapidly quenched”; in series [5] (N-form albumin, pH 7.4, excitation 295 nm), “rapidly quenched”. In addition, the binding energy in series [3] was -7.58 kcal/mol. In addition, the HASMC migration entry in series [4] is on record as “inhibited; also recorded: significant (p<0.05) reduction in cell migration”. Also, the “fluorescence quenching as a fraction of the initial fluorescence signal” value in series [5] (N-form albumin compared with F-form albumin) is “greater fluorescence quenching than F-form albumin”.
